These are literature values, as cited in patent publication US5281578A, “Gallium compounds” (Johnson Matthey Public Limited Company, priority 1992, dated 1994).

Where two headings read alike, the source gives them in different places.

The conditions of data set [1]: pH 4.5-7.

On to `[Ga+3]` [gallium(III) aquo-ion], for which, in data set [1], the “absorption from the gastro-intestinal tract” value is recorded as “very poorly absorbed”.
Take `[Ga]` [gallium]: the renal toxicity entry was “dose-limiting” in the data set with renal toxicity (iv bolus) and “no renal toxicity” with renal toxicity (seven day continuous iv infusion, cancer-associated hypercalcemia).
